We go through three compounds from patent US12318365B2, “Inhibition of dipeptide repeat proteins” (ALS Therapy Development Institute, priority 2019, dated 2025).

Entries after “also recorded” stand apart in the source; their conditions may differ. No end group written: not given here.

Data set [1] has as its system NSC-34 motor-neuron-like cells. Kind of data set: WST-1 assay (dysmetabolism) in NSC-34 cells. The data set is classed as cell-based, Mouse. The settings on record: for reduction of metabolic activity in NSC-34 compared to CHO: DRP 30 and 3 μM, 48 h. The text has this: WST-1 Assay: The WST-1 assay is a colorimetric assay that measures cell metabolism. Cells with a healthy metabolism contain mitochondrial dehydrogenase enzymes that remove hydrogen atoms from certain molecules, resulting in a release of energy that the cell can use to perform critical reactions. In the WST-1 assay, a water soluble tetrazolium salt substrate (known as WST-1) is applied, which readily enters cells and their mitochondria upon application. If cells are viable, their mitochondrial dehydrogenase enzymes will catalyze the reaction to convert this WST-1 substrate to a colored product called Formazan. The production of this colored Formazan product by viable cells can be quantified using a spectrophotometer (plate reader). Higher absorbance readings correspond to greater metabolic activity/cell viability.
NSC-34 Cell Culture: NSC-34 cells (Cedarlane Laboratories, Burlington, ON, CA) were cultured in a complete medium consisting of High Glucose Dulbecco's Modified Eagle Medium (Millipore-Sigma, Burlington, MA, USA) supplemented with 10% US-origin fetal bovine serum (Thermo-Fisher Scientific, Cambridge, MA, USA), 1% 200 mM L-Glutamine solution (Thermo-Fisher Scientific, Cambridge, MA, USA), and 1% 10,000 U/mL Penicillin-Streptomycin solution (Thermo-Fisher Scientific, Cambridge, MA, USA). Prior to preparation of NSC-34 complete medium, L-Glutamine and Penicillin-Streptomycin solutions were aliquoted and stored at −20° C., and DMEM/High Glucose was stored at 4°. […] Prepared complete medium, DPBS, and Trypsin were always heated in a 37° C. water bath before use, and stored at 4° C. between uses. Cell counts for plating were performed using a Hausser Scientific cell counting chamber (Thermo-Fisher Scientific, Cambridge, MA, USA).
Proteins were reconstituted in sterile DMSO (Millipore-Sigma, Burlington, MA, USA) to stock concentrations of 10 mM, and stored at 4° C.
After reconstitution using the solvents specified in Table _, stocks were aliquoted to 15-20 μL and immediately stored at −20° C.
One row on the top and bottom of the plate, and two columns on either side of the plate, were left without cells and contained culture medium only to minimize experimental well volume evaporation. After plating, cells were incubated for 24 h at 37° C., 5% CO2 prior to DRP and/or PRMT inhibitor addition. At time of DRP/PRMT inhibitor addition, desired doses of DRP for challenge and inhibitor for treatment were achieved by diluting aliquots of each stock in warm culture medium. During experiments where both PRMT inhibitors and DRPs were used, PRMT inhibitors were always applied to wells first, and followed by DRP application. […] Inhibitor toxicity controls were included as wells treated with the desired doses of drug for the experiment, but no DRP. DRP toxicity controls were included as wells only treated with the doses of DRP used for challenge. […] Additional controls needed for each endpoint are specified in the “WST-1 Assay” and “LDH Assay” sections of these methods.
WST-1 Assay: Cells were plated and prepared using the steps described in the “Plating NSC-34 and Dosing with DRPs and PRMT Inhibitors” section of these methods. Other controls for this experiment included wells containing only cells in culture medium, and culture medium only. At time of testing, culture medium was removed from wells and replaced with a warmed, sterile-filtered solution consisting of DPBS with calcium and magnesium, and 4.5 g/L D-glucose (Millipore-Sigma, Burlington, MA, USA). To wells containing 200 μL DPBS-glucose solution, 20 μL/well WST-1 reagent (Millipore-Sigma, Burlington, MA) was applied and plates were then incubated at 37° C., 5% CO2 for 1 h before plates were read at 450 nm on a SpectraMax M3 Microplate Reader (Molecular Devices, San Jose, CA, USA). Experiments included three replicates per condition.
(In general: Tetrazolium dyes change colour on reduction, which living cells bring about.)

A further data set concerns NSC-34 cells. The data set is described as follows: BrdU ELISA (proliferation) in NSC-34 cells. The data set is classed as cell-based, Mouse. The settings on record: for effect of DRP on proliferation activity: compared to DMSO-treated controls; for abrogation of GR-induced proliferation inhibition: 300 nM GR15, 24 h. The method, then: BrdU ELISA: The BrdU ELISA is an ELISA detecting cell proliferation activity. BrdU is a pyrimidine analog that, when inside the cell, can be incorporated instead of thymidine into newly synthesized strands of DNA. Just as is indicated by thymidine incorporation into DNA, BrdU incorporation into cell DNA indicates DNA synthesis activity, which is required for cell proliferation. In the BrdU ELISA, cells are treated with test compounds as well as BrdU reagent, and then incubated for 24 hours before testing. During testing, an anti-BrdU antibody detects the incorporation of BrdU into cell DNA that occurred over the 24-hour period, as a surrogate for cell proliferation activity. This anti-BrdU antibody is then labelled with a secondary antibody tagged with a colored substrate, which can be quantified spectrophotometrically. Greater absorbance readings correspond to more cell proliferation activity.
Cells were plated in culture medium in 2 96-well plates at a density of 3.7×10^4 cells per well, and incubated overnight at 37° C., 5% CO2.
The following conditions were plated in triplicate.
Plates were incubated for 24 h at 37° C., 5% CO2. Cells were tested and data were analyzed using the procedure detailed in BrdU ELISA kit instructions.
Cells were plated in culture medium in 2 96-well plates at a density of 5×10^4 cells per well, and incubated overnight at 37° C., 5% CO2. […] 10 μL of each concentration would be added to 100 μL base media in plate to achieve final concentrations of 3, 1, 0.3, 0.1, 0.03, and 0.01 μM DRP.
The following conditions were plated in triplicate. Samples were surrounded by border wells on the outside of the plate filled with sterile Phosphate-buffered saline to prevent evaporation of volume in experimental wells during incubation; • Culture medium only • Background (Cells only in culture medium, without BrdU reagent) • Untreated (Cells only in culture medium, with BrdU reagent) • DMSO Controls (Cells treated with BrdU reagent and the amount of DMSO that DRP-treated cells were exposed to at each concentration) • i. The DMSO controls tested were as follows, corresponding to DRP doses starting at the highest (3 μM to the lowest 0.01 μM), and were diluted in culture medium: • 1. 0.03% DMSO • 2. 0.01% DMSO • 3. 0.003% DMSO • 4. 0.001% DMSO • 5. 0.0003% DMSO • 6.
(Uptake of a labelled nucleoside into DNA is a usual measure of proliferation.)

PRPRPRPRPRPRPRPRPRPRPRPRPRPRPR [PR15]: the “reduction of metabolic activity in NSC-34 compared to CHO” value in data set [1] is listed as “significantly greater reduction of metabolic activity in NSC-34”. Besides, in the data set on NSC-34 cells (DRP 0.01-3 μM, 24 h), the “rank among DRPs as inhibitor of proliferative activity” value was “the strongest inhibitor” and the “effect of DRP on proliferation activity” value is on record as “significantly suppressed proliferative activity in a dose-dependent manner”.

GRGRGRGRGRGRGRGRGRGRGRGRGRGRGR [GR15]: the “dysmetabolism induced by DRP challenge” value in data set [1] (DRP 10 nM-3 μM, 24 h) is on record as “induced dose-dependent dysmetabolism”. Further, the “reduction of metabolic activity in NSC-34 compared to CHO” value in data set [1] is listed as “significantly greater reduction of metabolic activity in NSC-34”. Also, in the data set on NSC-34 cells (DRP 0.01-3 μM, 24 h), the “effect of DRP on proliferation activity” value is recorded as “significantly suppressed proliferative activity in a dose-dependent manner”.

In the case of `CC(C)Oc1ccc(-c2c[nH]cc2CN(C)CCN)cc1` [MS023], in data set [1] (3 μM ADMe-GR15 challenge, 24 h, MS023 0.1-10 μM, three repeats), the “abrogation of ADMe-GR15-induced dysmetabolism” value is “did not abrogate”. Besides, in data set [1] (3 μM GR15, 24 h, MS023 0.01-3 μM), the “lowest dose with significant partial abrogation of dysmetabolism in GR-treated cells” value is 0.1 µM. Further, in data set [1] (3 μM GR15 challenge, 24 h, dose range of the example), the “dose dependence of abrogation of GR15-induced dysmetabolism” value is “in a dose-dependent manner; also recorded: consistently dose-dependently abrogated”. Further, the “abrogation of GR-induced dysmetabolism” value in data set [1] (3 μM GR15 challenge, 24 h, inhibitor dose 3 μM) is recorded as “abrogated GR-induced dysmetabolism”. The “abrogation of GR15-induced dysmetabolism” value in data set [1] (3 μM GR15 challenge, 24 h, inhibitor doses 1 and 3 μM) is given as “completely abrogated”. The “relative potency against GR- vs PR-induced dysmetabolism” value in data set [1] (3 μM GR15 or PR15, 24 h, MS023 0.01-3 μM) was “more potently abrogated GR-induced dysmetabolism”. In data set [1] (3 μM PR15, 24 h, MS023 0.01-3 μM), the “lowest dose with significant partial abrogation of dysmetabolism in PR-treated cells” value was 0.3 µM. Further, the “dose dependence of abrogation of PR15-induced dysmetabolism” value in data set [1] (3 μM PR15 challenge, 24 h, dose range of the example) is reported as “in a dose-dependent manner; also recorded: dose-dependently abrogated”. In data set [1] (3 μM PR15 challenge, 24 h, inhibitor doses 1 and 3 μM), the “abrogation of PR15-induced dysmetabolism” value is on record as “completely abrogated”. Besides, in data set [1] (no DRP, over all doses tested), the “dysmetabolism independently of DRP challenge” value was “No doses of MS023 tested induced dysmetabolism; also recorded: No doses of MS023 tested produced dysmetabolism”. The “abrogation of GR-induced proliferation inhibition” value was “partially abrogated” with NSC-34 cells (all doses (1-60 μM)) and “fully rescuing” in the data set with NSC-34 cells (dose 3 μM). The excessive proliferation result in the data set on NSC-34 cells (300 nM GR15 or PR15, 24 h, all doses tested (1-60 μM)) is listed as “without inducing excessive proliferation”. For the same compound, the “abrogation of PR-induced proliferation inhibition” value with NSC-34 cells (300 nM PR15, 24 h, all doses (1-60 μM)) is “fully abrogated”.
